Measurements taken from ChEMBL document CHEMBL4673209, “Discovery of a novel potent GPR40 full agonist” (Bioorg Med Chem Lett, 2018).
The source made the active and inactive calls. No cut-off for these calls is given here.

Assays:
Cytochrome P450 2C8 = target: T1, Cytochrome P450 2C8 (Homo sapiens, UniProt P10632); test: Inhibition of recombinant CYP2C8 (unknown origin); format: ADME
T1 sequence (P10632 whole entry): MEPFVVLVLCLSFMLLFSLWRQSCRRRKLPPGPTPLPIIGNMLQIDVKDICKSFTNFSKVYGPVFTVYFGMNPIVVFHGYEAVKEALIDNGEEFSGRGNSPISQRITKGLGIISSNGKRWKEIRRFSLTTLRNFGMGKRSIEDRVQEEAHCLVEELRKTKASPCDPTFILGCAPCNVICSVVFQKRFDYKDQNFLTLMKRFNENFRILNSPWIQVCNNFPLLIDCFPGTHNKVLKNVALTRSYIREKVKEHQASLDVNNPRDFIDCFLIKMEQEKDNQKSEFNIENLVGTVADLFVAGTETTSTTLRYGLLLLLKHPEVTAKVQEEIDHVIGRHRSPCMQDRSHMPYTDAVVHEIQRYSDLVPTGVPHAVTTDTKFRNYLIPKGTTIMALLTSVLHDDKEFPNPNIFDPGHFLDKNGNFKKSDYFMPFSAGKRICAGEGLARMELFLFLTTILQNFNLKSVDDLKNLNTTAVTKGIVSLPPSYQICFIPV

Cytochrome P450 1A2 = target: T2, Cytochrome P450 1A2 (Homo sapiens, UniProt P05177); test: Inhibition of CYP1A2 (unknown origin); format: ADME
T2 sequence (P05177 whole entry): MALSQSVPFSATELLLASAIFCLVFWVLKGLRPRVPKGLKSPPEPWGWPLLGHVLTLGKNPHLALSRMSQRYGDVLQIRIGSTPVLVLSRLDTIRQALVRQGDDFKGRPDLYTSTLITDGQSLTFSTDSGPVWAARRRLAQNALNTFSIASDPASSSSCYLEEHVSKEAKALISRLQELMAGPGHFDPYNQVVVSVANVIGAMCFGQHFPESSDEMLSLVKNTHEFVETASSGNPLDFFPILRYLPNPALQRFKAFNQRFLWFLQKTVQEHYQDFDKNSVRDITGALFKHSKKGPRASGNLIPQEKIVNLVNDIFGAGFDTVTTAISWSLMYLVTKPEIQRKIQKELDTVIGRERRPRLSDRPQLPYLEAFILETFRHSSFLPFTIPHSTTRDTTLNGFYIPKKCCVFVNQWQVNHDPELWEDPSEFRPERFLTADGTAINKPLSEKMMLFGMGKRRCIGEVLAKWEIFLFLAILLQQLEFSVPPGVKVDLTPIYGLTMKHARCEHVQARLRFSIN

[1] = target: T3, Peroxisome proliferator-activated receptor delta (Homo sapiens) (UniProt Q03181); test: Agonist activity at PPARbeta (unknown origin)
T3 sequence (whole entry): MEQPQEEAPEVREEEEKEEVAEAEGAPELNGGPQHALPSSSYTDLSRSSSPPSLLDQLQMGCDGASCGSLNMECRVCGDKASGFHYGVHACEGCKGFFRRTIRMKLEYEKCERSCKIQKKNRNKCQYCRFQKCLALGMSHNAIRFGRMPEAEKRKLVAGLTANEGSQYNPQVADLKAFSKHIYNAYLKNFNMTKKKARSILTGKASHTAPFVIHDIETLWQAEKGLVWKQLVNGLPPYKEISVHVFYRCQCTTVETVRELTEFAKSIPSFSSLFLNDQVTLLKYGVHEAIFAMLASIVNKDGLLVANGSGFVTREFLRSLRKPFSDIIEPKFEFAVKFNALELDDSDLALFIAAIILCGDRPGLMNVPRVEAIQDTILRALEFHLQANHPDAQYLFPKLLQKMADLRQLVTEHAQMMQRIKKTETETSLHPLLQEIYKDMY

[2] = target: T4, Free fatty acid receptor 4 (Homo sapiens) (UniProt Q5NUL3); test: Agonist activity at GPR120 (unknown origin)
T4 sequence (whole entry): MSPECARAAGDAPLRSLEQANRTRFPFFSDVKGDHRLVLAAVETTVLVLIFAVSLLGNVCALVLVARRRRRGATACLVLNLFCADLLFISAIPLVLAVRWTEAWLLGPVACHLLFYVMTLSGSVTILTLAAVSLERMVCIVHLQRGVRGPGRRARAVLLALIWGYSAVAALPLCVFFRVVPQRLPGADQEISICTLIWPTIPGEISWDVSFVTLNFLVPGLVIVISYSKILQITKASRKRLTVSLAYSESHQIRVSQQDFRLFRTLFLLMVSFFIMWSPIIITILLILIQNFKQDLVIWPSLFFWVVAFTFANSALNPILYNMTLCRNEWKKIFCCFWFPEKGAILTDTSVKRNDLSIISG

[3] = target: T5, Free fatty acid receptor 3 (Homo sapiens) (UniProt O14843); test: Agonist activity at GPR41 (unknown origin)
T5 sequence (whole entry): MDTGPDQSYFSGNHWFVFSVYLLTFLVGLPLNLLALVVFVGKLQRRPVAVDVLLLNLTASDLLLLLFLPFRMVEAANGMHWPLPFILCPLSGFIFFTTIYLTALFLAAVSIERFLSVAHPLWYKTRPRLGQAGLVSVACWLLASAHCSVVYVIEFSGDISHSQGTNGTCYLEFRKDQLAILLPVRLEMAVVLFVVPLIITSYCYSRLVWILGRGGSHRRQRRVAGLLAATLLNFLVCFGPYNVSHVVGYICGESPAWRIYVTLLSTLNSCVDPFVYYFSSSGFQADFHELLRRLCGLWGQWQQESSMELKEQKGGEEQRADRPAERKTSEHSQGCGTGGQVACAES

Rattus norvegicus = test: Anti-glycemic activity in fasted Sprague-Dawley ZDF rat assessed as increase in insulin secretion by measuring insulin level in plasma at 10 mg/kg administered 30 mins prior to glucose challenge measured after 140 mins by OGTT; format: functional; conditions: time 170 min, 2.833 h
[4] = target: Free fatty acid receptor 1 (Rattus norvegicus) (UniProt Q8K3T4); test: Agonist activity at GPR40 in rat INS1 (832/13) cells assessed as induction of glucose-stimulated insulin secretion in presence of 10 mM glucose; format: cell-based; conditions: INS-1 832/13, filed as agonist
[5] = target: Free fatty acid receptor 1 (Rattus norvegicus) (UniProt Q8K3T4); test: Agonist activity at GPR40 receptor in rat INS1(832/13) cells assessed as induction of IP1 accumulation at 10 uM; format: functional, cell-based; conditions: INS-1 832/13, filed as agonist
[6] = target: Free fatty acid receptor 1 (Rattus norvegicus) (UniProt Q8K3T4); test: Agonist activity at rat GPR40 receptor expressed in CHOK1 cells assessed as induction of IP1 accumulation at 10 uM; format: functional, cell-based; conditions: CHO-K1, filed as agonist
[7] = target: T6, Free fatty acid receptor 1 (Homo sapiens, UniProt O14842); test: Agonist activity at human GPR40 receptor expressed in CHOK1 cells assessed as induction of IP1 accumulation at 10 uM relative to AM1638; format: functional, cell-based; conditions: CHO-K1, filed as agonist
[8] = target: T6, Free fatty acid receptor 1; test: Agonist activity at human GPR40 receptor expressed in CHOK1 cells assessed as induction of IP1 accumulation at 10 uM; format: functional, cell-based; conditions: CHO-K1, filed as agonist
[9] = Volume of distribution at steady state in cynomolgus monkey; format: ADME, Macaca fascicularis; conditions: in vivo, read-out: Vdss
[10] = Cmax in rat; format: ADME; conditions: in vivo
[11] = Half life in iv dosed dog; format: ADME, organism-based, Canis lupus familiaris; conditions: in vivo
[12] = Half life in iv dosed cynomolgus monkey; format: ADME, organism-based, Macaca fascicularis; conditions: in vivo
[13] = Hepatic clearance in dog; format: ADME, Canis lupus familiaris; conditions: in vivo
[14] = Protein binding in cynomolgus monkey plasma; format: ADME, cell-free, Macaca fascicularis; conditions: read-out: PPB (converted)

Chain of Free fatty acid receptor 1 (Rattus norvegicus) (Q8K3T4 whole entry): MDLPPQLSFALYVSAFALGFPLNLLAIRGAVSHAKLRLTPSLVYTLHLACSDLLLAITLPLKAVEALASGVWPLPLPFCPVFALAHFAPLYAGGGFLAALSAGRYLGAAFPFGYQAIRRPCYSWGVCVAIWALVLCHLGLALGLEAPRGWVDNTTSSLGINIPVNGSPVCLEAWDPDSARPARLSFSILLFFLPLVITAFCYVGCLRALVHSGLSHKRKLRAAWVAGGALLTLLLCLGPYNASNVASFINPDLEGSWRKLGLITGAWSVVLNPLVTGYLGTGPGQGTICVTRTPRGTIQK
T6 sequence (O14842 whole entry): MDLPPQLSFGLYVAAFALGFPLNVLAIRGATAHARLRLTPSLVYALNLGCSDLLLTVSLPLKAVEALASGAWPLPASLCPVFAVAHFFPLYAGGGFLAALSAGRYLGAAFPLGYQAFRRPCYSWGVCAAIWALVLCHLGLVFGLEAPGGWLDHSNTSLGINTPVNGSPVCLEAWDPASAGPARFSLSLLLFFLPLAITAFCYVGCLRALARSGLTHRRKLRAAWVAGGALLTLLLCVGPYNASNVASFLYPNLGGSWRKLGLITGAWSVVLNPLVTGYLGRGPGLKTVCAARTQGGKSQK

## COc1cc(-c2ncc(COc3cccc([C@@H](CC(=O)O)C4CC4)c3)nc2CC(C)C)c(F)cn1
Cytochrome P450 2C8
  IC50: 9.8 µM
Cytochrome P450 1A2
  IC50: > 10 µM
[1]
  Activity: inactive
[2]
  Activity: inactive
[3]
  Activity: inactive
Rattus norvegicus
  Activity: 16925 ng/mL
[4]
  Activity: Active
[5]
  Activity: 1170 nM
[6]
  Activity: 572 nM
[7]
  Activity: 121%
[8]
  Activity: 1040 nM
[9]
  Vd: 1.06 L/kg
[10]
  Cmax: 9720 ng/mL
[11]
  half-life: 4.82 h
[12]
  half-life: 11.2 h
[13]
  CLH: 13.5 mL/min/kg
[14]
  fraction unbound: 0.0009
